Measurements: patent US12653827B2, “Methods of treating indolent systemic mastocytosis” (Telios Pharma Inc., priority 2024, dated 2026)

Experiments:
mast cells [1] = experiment: Return of degranulation after Compound 128 exposure and washout (FIG. 18); assay type: cell-based; conditions: flow cytometry
Description: FIGS. 18A-D show return of degranulation after Compound 128 exposure.

mast cells [2] = experiment: Phosphorylation and degranulation markers in antigen-stimulated mast cells grown with chronic SCF (FIG. 21); assay type: cell-based; conditions: 0.1-0.6 μM, antigen 15 minutes
Procedure: Histamine release, CD63 expression, CD203c expression, pBTK (Y223) levels, pP38 (T180/Y182) levels, pPLCg1 (S1248) levels, pERK (T202/Y204) levels, and pS6 (S235/236) levels are shown. Mast cells were grown with continuous (chronic) exposure to SCF and then stimulated with antigen (Ag) for 15 minutes, leading to phosphorylation of multiple kinases, including pBTK, pPLCγ1, pP38, pERK, and pS6 ribosome. This stimulation increases degranulation markers, including CD63, CD203c, and histamine release.

mast cells [3] = experiment: Degranulation of mast cells grown from CD34+ blood cells of ISM patients (FIG. 22); assay type: cell-based; conditions: absence of SCF at the time of stimulation
BTK = BTK (Homo sapiens, UniProt Q06187); experiment: pBTK test in ISM-like (+SCF) human mast cells; assay type: cell-based; parameters: endogenous in cells; host or cells: Primary human mast cells differentiated from bone marrow CD34+ cells of healthy donors, cultured with SCF; conditions: six healthy donors, treated two hours
Procedure: (§1) Human mast cells were derived from bone marrow CD34+ cells from six healthy donors for up to eight weeks by culturing CD34+ cells in StemSpan SFEM II (Stem Cell Technologies) supplemented with stem cell factor (SCF; 100 ng/mL; R&D System), IL-6 (R&D Systems), IL-3 (R&D Systems) and 1% penicillin/streptomycin (P/S; Gibco) for the first 10 days and in StemSpan SFEM II supplemented with SCF and IL-6 and 1% P/S for the remaining time in culture. […] Supernatant was collected and histamine levels were measured using a Histamine ELISA kit (Eagle Biosciences). […] Percent of activated mast cells was calculated as number of activated mast cells over the total number of mast cells.
Human mast cells were differentiated from bone marrow CD34+ cells from six healthy donors, cultured and sensitized as set forth in Example 4. […] The median fluorescence intensity of phosphorylated BTK was measured. CD63 and histamine levels in these cells were measured and percent activated mast cells were calculated as set forth in Example 4. The percent of stimulated control for pBTK, activated mast cells (CD63+) and histamine levels was calculated. […]

[4] = test system: calcium influx in human mast cells; experiment: Calcium flux assay in antigen-stimulated human mast cells; assay type: cell-based; conditions: treated 2 hours, NP-BSA stimulation
Procedure: as §1
Compound 128 Inhibits Calcium Signaling in Human Mast Cells. […] The median fluorescence intensity of cytosolic calcium was measured across the stimulation time period and graphed to represent the calcium influx profile. The area under the curve (AUC) of the calcium influx profile was calculated and normalized as a percent of stimulated control. […]

basophils = experiment: Comparison of BTK inhibitors by BAT (CD63 and CD203c); assay type: cell-based, human; conditions: concentration of 1 μM; 2 hours; blood from a healthy donor
Procedure: The BAT assay using the Flow Cast Basophil Activation Kit (Buhlmann Diagnostics; Catalog #B-CCR-STCON) was then conducted following manufacturer instructions by (1) stimulating the blood with anti-FcεR stimulation control in stimulation buffer with IL-3 and staining cells for CCR3 and CD63 for 15 minutes at 37° C., (2) lysing red blood cells and fixing cells with Lysing Reagent at room temperature for 10 minutes, (3) washing cells with Wash Buffer, and (4) acquiring data on a flow cytometer. Activated basophils were defined as CCR3+, low side scatter and CD63+. Percent of activated basophils was calculated as number of activated basophils over the total number of basophils. A four-parameter logistic regression was applied to determine the EC50 and EC90.
Blood samples were gently rocked at room temperature for 2 hours. […] Activated basophils were also defined as CCR3+, low side scatter and CD203c+.

BTK, sequence (Q06187 whole entry): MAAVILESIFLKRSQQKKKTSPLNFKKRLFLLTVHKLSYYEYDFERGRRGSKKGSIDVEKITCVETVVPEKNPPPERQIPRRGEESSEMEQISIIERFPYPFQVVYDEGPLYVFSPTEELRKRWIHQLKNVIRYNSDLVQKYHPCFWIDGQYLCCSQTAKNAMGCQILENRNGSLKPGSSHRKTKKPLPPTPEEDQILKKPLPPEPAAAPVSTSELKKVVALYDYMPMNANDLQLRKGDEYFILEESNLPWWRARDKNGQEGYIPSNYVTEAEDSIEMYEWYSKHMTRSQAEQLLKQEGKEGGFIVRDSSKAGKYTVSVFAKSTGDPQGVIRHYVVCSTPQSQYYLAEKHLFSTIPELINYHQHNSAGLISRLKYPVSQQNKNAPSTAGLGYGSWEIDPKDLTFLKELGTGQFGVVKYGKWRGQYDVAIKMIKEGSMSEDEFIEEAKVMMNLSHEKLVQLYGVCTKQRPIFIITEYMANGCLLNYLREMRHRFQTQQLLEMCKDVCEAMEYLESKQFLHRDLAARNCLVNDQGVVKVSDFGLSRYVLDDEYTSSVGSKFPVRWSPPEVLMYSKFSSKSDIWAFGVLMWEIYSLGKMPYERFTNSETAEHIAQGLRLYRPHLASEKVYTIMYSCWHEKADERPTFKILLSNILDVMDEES

inhibition of IgE-mediated BTK phosphorylation (BTK): potently inhibits
SMILES: C=CC(=O)N1CCC(F)(CNc2ncnc(N)c2-c2ccc(Oc3ccccc3)cc2)CC1 [Compound 128, 1-(4-(((6-amino-5-(4-phenoxyphenyl)pyrimidin-4-yl)amino)methyl)-4-fluoropiperidin-1-yl)prop-2-en-1-one]
time to restoration of degranulation after inhibition (mast cells [1]): ≤ 24 h
phosphorylation (pBTK, pPLCγ1, pP38, pERK, pS6) and degranulation (CD63, CD203c, histamine) (mast cells [2]): decrease to near basal levels
degranulation of ISM patient-derived mast cells (mast cells [3]): inhibited
mast cells undergoing calcium influx (AUC, percent of stimulated control) ([4]; ISM-like (+SCF) mast cells): less than 7%
mast cells undergoing calcium influx (AUC, percent of stimulated control) ([4]; healthy (−SCF) mast cells): < 3%
effect on basophil activation (CD63+, CD203c+) (basophils): fully inhibits basophil activation
